Test results taken from the NIST ThermoML archive (doi:10.1016/j.jct.2018.03.017).
Values joined by “and” are separate entries in the source; they are usually repeats but may differ in a detail not shown here. Equal values may be shown once.

Test: xn = mol fraction of the nth substance listed
Settings: 96 kPa, Liquid, Pycnometric method

C1CCC2=NCCCN2CC1 [1,8-diaza-7-bicyclo[5.4.0]undecene] + OCC(O)CO
mass density
Settings | 288.15 K | 293.15 K | 298.15 K | 303.15 K | 308.15 K | 313.15 K | 318.15 K | 323.15 K | 328.15 K
x1 = 0.0501 | 1251.8 kg/m3 | – | 1245.4 kg/m3 | – | 1239 kg/m3 | – | 1232.2 kg/m3 | – | 1224.9 kg/m3
x1 = 0.0909 | 1238.4 kg/m3 | – | 1231.7 kg/m3 | – | 1224.7 kg/m3 | – | 1217.1 kg/m3 | – | 1208.3 kg/m3
x1 = 0.0926 | – | 1236.7 kg/m3 | – | 1229.7 kg/m3 | – | 1222.9 kg/m3 | – | 1216 kg/m3 | –
x1 = 0.1667 | 1211.2 kg/m3 | – | 1204.2 kg/m3 | – | 1196.4 kg/m3 | – | 1188.2 kg/m3 | – | 1180.2 kg/m3
x1 = 0.1902 | – | 1197.8 kg/m3 | – | 1191.9 kg/m3 | – | 1184.5 kg/m3 | – | 1177.6 kg/m3 | –
x1 = 0.2 | 1200.6 kg/m3 | – | 1192.3 kg/m3 | – | 1184.9 kg/m3 | – | 1176.9 kg/m3 | – | 1170.9 kg/m3 and 1169.4 kg/m3
x1 = 0.2153 | 1195.3 kg/m3 | – | 1187 kg/m3 | – | 1179.6 kg/m3 | – | 1171.5 kg/m3 | – | 1164.2 kg/m3
x1 = 0.2306 | 1190.3 kg/m3 | – | 1181.8 kg/m3 | – | 1174.6 kg/m3 | – | 1166.7 kg/m3 | – | 1158.9 kg/m3
x1 = 0.2998 | – | 1161.7 kg/m3 | – | 1156.4 kg/m3 | – | 1149.2 kg/m3 | – | 1142.5 kg/m3 | –
x1 = 0.3059 | 1167.2 kg/m3 | – | 1158 kg/m3 | – | 1150.5 kg/m3 | – | 1142.9 kg/m3 | – | 1136 kg/m3
x1 = 0.3333 | 1159.4 kg/m3 | – | 1149.8 kg/m3 | – | 1142.5 kg/m3 | – | 1134.9 kg/m3 | – | 1128 kg/m3
x1 = 0.3996 | – | 1133.2 kg/m3 | – | 1128.3 kg/m3 | – | 1121.2 kg/m3 | – | 1114.6 kg/m3 | –
x1 = 0.4011 | 1141.5 kg/m3 | – | 1131.6 kg/m3 | – | 1124.1 kg/m3 | – | 1117.3 kg/m3 | – | 1109.7 kg/m3
x1 = 0.5 | 1117.4 kg/m3 | – | 1107.1 kg/m3 and 1108.1 kg/m3 | – | 1100.2 kg/m3 | – | 1091.1 kg/m3 and 1093.5 kg/m3 | – | 1086 kg/m3
x1 = 0.5032 | – | 1108.7 kg/m3 | – | 1102.3 kg/m3 | – | 1095.3 kg/m3 | – | 1087.4 kg/m3 | –
x1 = 0.5632 | 1102.9 kg/m3 | – | 1093.7 kg/m3 | – | 1086.4 kg/m3 | – | 1079.3 kg/m3 | – | 1071.9 kg/m3
x1 = 0.5995 | – | 1088 kg/m3 | – | 1081.9 kg/m3 | – | 1075.9 kg/m3 | – | 1068.3 kg/m3 | –
x1 = 0.625 | 1089.8 kg/m3 | – | 1081 kg/m3 | – | 1073.9 kg/m3 | – | 1066.7 kg/m3 | – | 1059.1 kg/m3
x1 = 0.6992 | – | 1069.6 kg/m3 | – | 1064.2 kg/m3 | – | 1056.8 kg/m3 | – | 1049.7 kg/m3 | –
x1 = 0.75 | 1066.1 kg/m3 and 1065.4 kg/m3 | – | 1058.1 kg/m3 | – | 1050.9 kg/m3 | – | 1042.7 kg/m3 | – | 1035.3 kg/m3
x1 = 0.7998 | – | 1052.3 kg/m3 | – | 1045.7 kg/m3 | – | 1038.7 kg/m3 | – | 1031.5 kg/m3 | –
x1 = 0.8333 | 1051.7 kg/m3 | – | 1044.3 kg/m3 | – | 1037 kg/m3 | – | 1028.7 kg/m3 | – | 1021.1 kg/m3
x1 = 0.9001 | – | 1030.8 kg/m3 | – | 1028.9 kg/m3 | – | 1021.2 kg/m3 | – | 1013.9 kg/m3 | –
x1 = 1 | 1020.6 kg/m3 | 1017.1 kg/m3 | 1014.1 kg/m3 | 1010.9 kg/m3 | 1007.4 kg/m3 | 1004.6 kg/m3 | 1000.8 kg/m3 | 998.4 kg/m3 | 994.2 kg/m3
